# From patent US20260041093A1, “Ionic Derivatives Of Aromatic Carboxylic Acid For Use As Plant Stimulants, Method For Stimulating Plants And Use Of These Derivatives For Manufacturing Compositions For Stimulating Plants” (FUNDACJA UNIWERSYTETU IM. ADAMA MICKIEWICZA W POZNANIU, priority 2022, published 2026)
# Like-named read-outs stand apart in the source and are kept apart here.
# Experiments:
# tulip = assay: Tulip bulbs in peat watered with working solution: height, stem diameter, weights, root length, flowering, vigor (Example 1); assay type: in vivo; conditions: 80 mg/L, benzothiadiazole salt 30 mg/L
# Procedure: Control plants were watered with distilled water. During the conducted experiment, plant height was measured before each treatment. Flowering length and plant vigor were also studied. After 20 days from the end of the last treatment, the fresh and dry weight of aboveground parts and roots, and root length were assessed.
# [1] = test system: apple trees (M9 rootstocks); conditions: 4 sprays at 14-day intervals; 3-chlorosalicylate 100 mg/L, benzothiadiazole salt 25 mg/L
# From the text: Flowers were counted during the experiment, and the number of shoots and leaves in the fall.
# bell pepper = assay: Bell pepper seedlings in pots sprayed: height, fresh and dry weight (Example 5); assay type: in vivo; conditions: 3-chlorosalicylate 80 mg/L, benzothiadiazole salt 30 mg/L
# Procedure: Pepper seedlings were planted into pots with peat substrate (P9 pots having 0,5 l). Pots were placed in greenhouse and cultivated for a 1 month. […] Plants treated with water only were the untreated control. During the course of the experiment, the height of the plants was measured, and at the end the fresh and dry weight of the aboveground part was evaluated.
# lettuce [2] = conditions: double application, 3-chlorosalicylate 100 mg/L, benzothiadiazole salt 50 mg/L
# From the text: The purpose of the study was to determine the effect of foliar spraying with test solutions on lettuce (Lactuca sativa L. ‘Zeralda’) plants. The plants were sprayed 7 and 14 days after transplanting to a permanent site. […] After another 7 days, drought stress was induced (plants in the selected combinations were not watered until symptoms of leaf wilting appeared), followed by proper watering of the plants again. Control plants were watered in turn to a constant weight. After 3 days after re-watering, chlorophyll fluorescence was measured (OJIP test, methodology described, among others, in Kalaji H. M., 2011. Impact of abiotic stress factors on chlorophyll fluorescence in plants of selected barley cultivars Hordeum vulgare L. SGGW Publishing House, Warsaw [https://badanieroslin.pl/wp-content/uploads/2018/11/Oddzialywanie-abiotycznych-czynnikow. . . ..pdf]) and the condition of the plants was assessed.
# The measurement was carried out after inducing drought stress, followed by re-watering the plants to a constant weight. […] This parameter is lowered by stresses.
# lettuce [3] = conditions: 3-chlorosalicylate 100 mg/L double application, benzothiadiazole salt 50 mg/L single application
# Procedure: The purpose of the study was to determine the effect of foliar spraying with test solutions on lettuce plants (Lactuca sativa L. ‘Zeralda’) under abiotic stress conditions—low temperature. After 7 and 14 days after transplanting the plants to a permanent place, spraying of the plants was carried out. […] After another 7 days, low temperature stress was induced—plants were grown in three glass chambers with a day temperature of 22° C. and night temperatures of 4, 12 and 20° C. until harvest.
# [4] = Table 2, 20 days after last treatment
# [5] = Table 3 (title: tulip bulbs / root system)
compound,measurement,setting,value
C[N+](C)(C)CCO.O=C([O-])c1cccc(Cl)c1O [choline 3-chlorosalicylate],Average stem diameter at the end of the experiment 20 days after the 4th treatment,tulip,8.1 b mm
same,Flowering length,tulip,23 days
same,Root length,tulip,84.3 b mm
same,Vigor [on a scale from 1 to 5],"tulip; 1 is a laying plant, 5 is a stiff plant",4.8 b
same,Average dry weight of the above-ground part,tulip; [4],41.8 b g
same,Average fresh weight of the above-ground part,tulip; [4],443.8 b g
same,Average dry weight of the above-ground part,tulip; [5],5.6 b g
same,Average fresh weight of the above-ground part,tulip; [5],59.5 b g
same,"Average plant height, initial height, first treatment",tulip; before 1st watering,45.7 a mm
same,"Average plant height, second treatment",tulip; before 2nd watering,130.5 b mm
same,"Average plant height, third treatment",tulip; before 3rd watering,257.4 b mm
same,"Average plant height, fourth treatment",tulip; before 4th watering,369.1 b mm
same,"Average plant height, 20 days after the 4th treatment",tulip; end of experiment,510.9 b mm
same,Average number of flowers per plant,[1],30.3 b
same,Average number of leaves per plant,[1],45.3 b
same,Average number of shoots per plant,[1],6.7 b
same,Average dry mass,bell pepper,12.2 b g
same,Average fresh mass,bell pepper,85.7 b g
same,"Average plant height, initial height, before first treatment",bell pepper,41.5 a mm
same,"Average plant height, second treatment",bell pepper,161.8 c mm
same,"Average plant height, third treatment",bell pepper,221.5 b mm
same,Plant height increase,bell pepper,180.0 b mm
same,ABS/RC,lettuce [2]; Control (watered),1.48 b
same,DIo/RC,lettuce [2]; Control (watered),0.24 a
same,ETo/RC,lettuce [2]; Control (watered),1.08 b
same,F0,lettuce [2]; Control (watered),4877 a
same,FM,lettuce [2]; Control (watered),34278 a
same,FM/F0,lettuce [2]; Control (watered),7.32 c
same,Fv,lettuce [2]; Control (watered),29401 a
same,Fv/F0,lettuce [2]; Control (watered),6.32 c
same,Fv/FM,lettuce [2]; Control (watered),0.86 c
same,Pi_Abs (PSII functioning index calculated on the basis of energy absorption),lettuce [2]; Control (watered),12.74 days
same,TRo/RC,lettuce [2]; Control (watered),1.72 b
same,ABS/RC,lettuce [2]; Drought,1.20 a
same,DIo/RC,lettuce [2]; Drought,0.24 a
same,ETo/RC,lettuce [2]; Drought,0.81 a
same,F0,lettuce [2]; Drought,5524 a
same,FM,lettuce [2]; Drought,33908 a
same,FM/F0,lettuce [2]; Drought,6.16 ab
same,Fv,lettuce [2]; Drought,28384 b
same,Fv/F0,lettuce [2]; Drought,5.16 ab
same,Fv/FM,lettuce [2]; Drought,0.84 ab
same,Pi_Abs (PSII functioning index calculated on the basis of energy absorption),lettuce [2]; Drought,7.77 b
same,TRo/RC,lettuce [2]; Drought,1.44 a
same,"% dry matter (leaf), Average",lettuce [2],3.72 b %
same,"% dry matter (leaf), Drought",lettuce [2],3.55 b %
same,"% dry matter (leaf), Watered",lettuce [2],3.96 b %
same,"Head and root weight, Average",lettuce [2],72.5 a g/plant
same,"Head and root weight, Drought",lettuce [2],71.7 abc g/plant
same,"Head and root weight, Watered",lettuce [2],73.2 abc g/plant
same,"Head weight, Average",lettuce [2],51.3 a g/plant
same,"Head weight, Drought",lettuce [2],52.8 b g/plant
same,"Head weight, Watered",lettuce [2],50.6 ab g/plant
same,"RWC (relative water content), Watered",lettuce [2],73.2 ab %
same,"RWC, Average",lettuce [2],73.3 a %
same,"RWC, Drought",lettuce [2],71.9 ab %
same,"Head weight, 4° C.",lettuce [3]; night temperature 4° C.,48.9 b g/plant
same,"Head weight, 12° C.",lettuce [3]; night temperature 12° C.,52.8 b g/plant
same,"Head weight, 20° C.",lettuce [3]; night temperature 20° C.,65.3 b g/plant
